Consider four compounds from patent US11332440B2, “4-oxo-alkylated tetramic acid compound, and preparation method thereof” (priority 2017, dated 2022).

This assay deals with Drosophilae containing and expressing human Abeta42 gene. The assay can be described thus: Pavlov's olfactory-related instantaneous memory test in Drosophila. Conditions: increasing dosage, compared with memantine hydrochloride; FIG. 3. It is filed as in vivo. From the text: Drosophila has a classical learning and memory paradigm, known as Pavlov's olfactory-related instantaneous memory. During the training program, a group of about 100 drosophilae were exposed sequentially to two odors, i.e., 3-octanol and 4-methylcyclohexanol, each odor for 60 seconds, and to fresh air for 45 seconds therebetween. During exposure to the first odor, the drosophilae were electrocuted on their feet (1.5-second pulses at 3.5-second intervals, 60V), while no electrocution was exerted during exposure to the second odor. In order to detect “instantaneous memory” (also known as “learning”), drosophilae were transferred to the selection area in the T maze immediately after training and forced to choose between the two odors. The drosophilae in each T-maze arm were then captured, anesthetized, and counted. The behavior index was calculated from the distribution of drosophilae in the T maze. […] In each experiment, the age of the control group was matched with that of the experimental group.
Pharmacodynamic evaluation of the candidate compounds: Drosophilae containing and expressing human Abeta42 gene were selected as a diseased control, and drosophilae containing but not expressing human Abeta42 gene were selected as a healthy control. The day after emergence of the drosophilae, male drosophilae were selected and fed. […] The above memory test was performed on the drosophilae on the tenth day.

Regarding `O=C1C=C(OCc2ccccc2F)[C@H](Cc2ccccc2)N1` [Compound 51121], the “dose-effect relationship to improve memory of drosophilae with Alzheimer's disease” value (“dose-effect relationship” for short) is on record as “eventually reaches or exceeds the level of the activity of the positive compound memantine hydrochloride”. Consider `O=C1C=C(OCc2cccs2)[C@H](Cc2ccccc2)N1` [Compound 51151], for which the “dose-effect relationship” value is reported as “eventually reaches or exceeds the level of the activity of the positive compound memantine hydrochloride”. `O=C1C=C(OCc2cccc3ccccc23)[C@H](Cc2ccccc2)N1` [Compound 51311]: the “dose-effect relationship” value is reported as “eventually reaches or exceeds the level of the activity of the positive compound memantine hydrochloride”. Regarding `CC(=O)Oc1ccc(COC2=CC(=O)N[C@H]2Cc2ccccc2)cc1` [Compound 51351], the “dose-effect relationship” value is “eventually reaches or exceeds the level of the activity of the positive compound memantine hydrochloride”.
